Test results published in the NIST ThermoML archive (doi:10.1016/j.jct.2007.03.010).

Test: excess molar enthalpy (molar enthalpy of mixing); xn = mol fraction of the nth substance listed
Conditions: 101 kPa, Liquid, Calvet calorimetry

CC(O)CN (stereo not drawn) [1-amino-2-propanol] + O
Conditions	excess molar enthalpy [kcal/mol]
298.15 K, x1 = 0.03	-0.119
298.15 K, x1 = 0.0501	-0.186
298.15 K, x1 = 0.0697	-0.241
298.15 K, x1 = 0.1002	-0.324
298.15 K, x1 = 0.1505	-0.419
298.15 K, x1 = 0.2012	-0.488
298.15 K, x1 = 0.2994	-0.572
298.15 K, x1 = 0.3496	-0.593
298.15 K, x1 = 0.3993	-0.592
298.15 K, x1 = 0.4465	-0.579
298.15 K, x1 = 0.494	-0.554
298.15 K, x1 = 0.6033	-0.481
298.15 K, x1 = 0.7155	-0.365
298.15 K, x1 = 0.7954	-0.27
298.15 K, x1 = 0.8847	-0.173
313.15 K, x1 = 0.0304	-0.134
313.15 K, x1 = 0.0701	-0.253
313.15 K, x1 = 0.1001	-0.326
313.15 K, x1 = 0.15	-0.421
313.15 K, x1 = 0.1999	-0.491
313.15 K, x1 = 0.3021	-0.584
313.15 K, x1 = 0.352	-0.601
313.15 K, x1 = 0.4015	-0.598
313.15 K, x1 = 0.5022	-0.556
313.15 K, x1 = 0.591	-0.487
313.15 K, x1 = 0.692	-0.392
313.15 K, x1 = 0.7864	-0.283
313.15 K, x1 = 0.8808	-0.174
323.15 K, x1 = 0.0301	-0.114
323.15 K, x1 = 0.05	-0.171
323.15 K, x1 = 0.0705	-0.244
323.15 K, x1 = 0.0999	-0.308
323.15 K, x1 = 0.1507	-0.401
323.15 K, x1 = 0.1993	-0.473
323.15 K, x1 = 0.2999	-0.551
323.15 K, x1 = 0.3533	-0.577
323.15 K, x1 = 0.4045	-0.587
323.15 K, x1 = 0.507	-0.554
323.15 K, x1 = 0.5849	-0.497
323.15 K, x1 = 0.6741	-0.42
323.15 K, x1 = 0.8125	-0.261
323.15 K, x1 = 0.9073	-0.144

CN(C)CCO [2-(N,N-dimethylamino)ethanol] + O
Conditions	excess molar enthalpy [kcal/mol]
298.15 K, x1 = 0.0299	-0.168
298.15 K, x1 = 0.0705	-0.347
298.15 K, x1 = 0.1008	-0.443
298.15 K, x1 = 0.1501	-0.545
298.15 K, x1 = 0.2052	-0.618
298.15 K, x1 = 0.301	-0.68
298.15 K, x1 = 0.349	-0.692
298.15 K, x1 = 0.4106	-0.69
298.15 K, x1 = 0.4544	-0.673
298.15 K, x1 = 0.5365	-0.615
298.15 K, x1 = 0.6599	-0.48
298.15 K, x1 = 0.7996	-0.298
298.15 K, x1 = 0.9156	-0.133
313.15 K, x1 = 0.0307	-0.168
313.15 K, x1 = 0.0695	-0.314
313.15 K, x1 = 0.1196	-0.46
313.15 K, x1 = 0.2038	-0.584
313.15 K, x1 = 0.2979	-0.652
313.15 K, x1 = 0.349	-0.665
313.15 K, x1 = 0.4063	-0.663
313.15 K, x1 = 0.4925	-0.618
313.15 K, x1 = 0.5885	-0.526
313.15 K, x1 = 0.7046	-0.403
313.15 K, x1 = 0.7891	-0.295
313.15 K, x1 = 0.9076	-0.145
323.15 K, x1 = 0.0301	-0.158
323.15 K, x1 = 0.0705	-0.315
323.15 K, x1 = 0.1217	-0.436
323.15 K, x1 = 0.2027	-0.556
323.15 K, x1 = 0.3001	-0.629
323.15 K, x1 = 0.3486	-0.643
323.15 K, x1 = 0.4001	-0.641
323.15 K, x1 = 0.4995	-0.597
323.15 K, x1 = 0.6093	-0.489
323.15 K, x1 = 0.7618	-0.309
323.15 K, x1 = 0.9197	-0.111

CNCCO [2-(methylamino)ethanol] + O
Conditions	excess molar enthalpy [kcal/mol]
298.15 K, x1 = 0.0302	-0.127
298.15 K, x1 = 0.0514	-0.216
298.15 K, x1 = 0.0695	-0.278
298.15 K, x1 = 0.1002	-0.354
298.15 K, x1 = 0.1485	-0.459
298.15 K, x1 = 0.1992	-0.536
298.15 K, x1 = 0.3021	-0.638
298.15 K, x1 = 0.3471	-0.657
298.15 K, x1 = 0.3996	-0.653
298.15 K, x1 = 0.4471	-0.637
298.15 K, x1 = 0.5017	-0.599
298.15 K, x1 = 0.5992	-0.513
298.15 K, x1 = 0.696	-0.408
298.15 K, x1 = 0.7988	-0.291
298.15 K, x1 = 0.8939	-0.164
313.15 K, x1 = 0.031	-0.128
313.15 K, x1 = 0.05	-0.216
313.15 K, x1 = 0.0704	-0.283
313.15 K, x1 = 0.1011	-0.38
313.15 K, x1 = 0.1488	-0.475
313.15 K, x1 = 0.2003	-0.55
313.15 K, x1 = 0.2983	-0.631
313.15 K, x1 = 0.3491	-0.64
313.15 K, x1 = 0.3986	-0.638
313.15 K, x1 = 0.5035	-0.601
313.15 K, x1 = 0.5833	-0.547
313.15 K, x1 = 0.686	-0.459
313.15 K, x1 = 0.8053	-0.305
313.15 K, x1 = 0.8956	-0.162
323.15 K, x1 = 0.0299	-0.177
323.15 K, x1 = 0.0501	-0.266
323.15 K, x1 = 0.07	-0.325
323.15 K, x1 = 0.1008	-0.396
323.15 K, x1 = 0.1504	-0.472
323.15 K, x1 = 0.2004	-0.531
323.15 K, x1 = 0.2985	-0.614
323.15 K, x1 = 0.3492	-0.631
323.15 K, x1 = 0.4023	-0.633
323.15 K, x1 = 0.5108	-0.592
323.15 K, x1 = 0.6095	-0.512
323.15 K, x1 = 0.6956	-0.414
323.15 K, x1 = 0.8039	-0.279
323.15 K, x1 = 0.8815	-0.179

NCCCO [3-amino-1-propanol] + O
Conditions	excess molar enthalpy [kcal/mol]
298.15 K, x1 = 0.0299	-0.0966
298.15 K, x1 = 0.0705	-0.222
298.15 K, x1 = 0.1203	-0.364
298.15 K, x1 = 0.2	-0.509
298.15 K, x1 = 0.2982	-0.598
298.15 K, x1 = 0.3452	-0.62
298.15 K, x1 = 0.4067	-0.625
298.15 K, x1 = 0.4989	-0.588
298.15 K, x1 = 0.593	-0.519
298.15 K, x1 = 0.7515	-0.366
298.15 K, x1 = 0.8969	-0.17
313.15 K, x1 = 0.0297	-0.115
313.15 K, x1 = 0.0702	-0.245
313.15 K, x1 = 0.12	-0.375
313.15 K, x1 = 0.2007	-0.504
313.15 K, x1 = 0.3015	-0.607
313.15 K, x1 = 0.3458	-0.629
313.15 K, x1 = 0.3982	-0.633
313.15 K, x1 = 0.5034	-0.597
313.15 K, x1 = 0.6045	-0.508
313.15 K, x1 = 0.7564	-0.329
313.15 K, x1 = 0.9333	-0.115
323.15 K, x1 = 0.0298	-0.154
323.15 K, x1 = 0.0718	-0.29
323.15 K, x1 = 0.1192	-0.397
323.15 K, x1 = 0.1996	-0.512
323.15 K, x1 = 0.3018	-0.608
323.15 K, x1 = 0.3493	-0.632
323.15 K, x1 = 0.3947	-0.637
323.15 K, x1 = 0.5038	-0.597
323.15 K, x1 = 0.605	-0.517
323.15 K, x1 = 0.7594	-0.34
323.15 K, x1 = 0.8801	-0.18

NCCNCCO [N-(2-aminoethyl)ethanolamine] + O
Conditions	excess molar enthalpy [kcal/mol]
298.15 K, x1 = 0.0298	-0.184
298.15 K, x1 = 0.0496	-0.304
298.15 K, x1 = 0.0699	-0.409
298.15 K, x1 = 0.0992	-0.536
298.15 K, x1 = 0.1503	-0.717
298.15 K, x1 = 0.2015	-0.824
298.15 K, x1 = 0.2962	-0.934
298.15 K, x1 = 0.2982	-0.936
298.15 K, x1 = 0.3484	-0.958
298.15 K, x1 = 0.3994	-0.945
298.15 K, x1 = 0.4454	-0.901
298.15 K, x1 = 0.4962	-0.834
298.15 K, x1 = 0.505	-0.821
298.15 K, x1 = 0.5922	-0.685
298.15 K, x1 = 0.6969	-0.524
298.15 K, x1 = 0.77	-0.409
298.15 K, x1 = 0.9077	-0.186
313.15 K, x1 = 0.0299	-0.224
313.15 K, x1 = 0.0498	-0.315
313.15 K, x1 = 0.0701	-0.411
313.15 K, x1 = 0.1	-0.559
313.15 K, x1 = 0.1495	-0.729
313.15 K, x1 = 0.2002	-0.865
313.15 K, x1 = 0.2956	-0.984
313.15 K, x1 = 0.3547	-1.01
313.15 K, x1 = 0.4001	-0.992
313.15 K, x1 = 0.4461	-0.95
313.15 K, x1 = 0.4893	-0.904
313.15 K, x1 = 0.6009	-0.752
313.15 K, x1 = 0.6723	-0.638
313.15 K, x1 = 0.7961	-0.41
313.15 K, x1 = 0.9041	-0.212
323.15 K, x1 = 0.0301	-0.147
323.15 K, x1 = 0.0498	-0.246
323.15 K, x1 = 0.0697	-0.381
323.15 K, x1 = 0.0992	-0.487
323.15 K, x1 = 0.1491	-0.697
323.15 K, x1 = 0.1988	-0.816
323.15 K, x1 = 0.3014	-0.912
323.15 K, x1 = 0.3527	-0.941
323.15 K, x1 = 0.3958	-0.936
323.15 K, x1 = 0.4971	-0.86
323.15 K, x1 = 0.5908	-0.723
323.15 K, x1 = 0.7056	-0.536
323.15 K, x1 = 0.7484	-0.463
323.15 K, x1 = 0.8999	-0.196

CN(CCO)CCO [N-methyldiethanolamine] + O
313.15 K
Conditions	excess molar enthalpy [kcal/mol]
x1 = 0.1004	-0.337
x1 = 0.1501	-0.431
x1 = 0.1986	-0.496
x1 = 0.2593	-0.543
x1 = 0.3681	-0.552
x1 = 0.4312	-0.535
x1 = 0.4941	-0.495
x1 = 0.593	-0.417
x1 = 0.7778	-0.25
x1 = 0.8203	-0.208

OCCNCCO [diethanolamine] + O
298.15 K
Conditions	excess molar enthalpy [kcal/mol]
x1 = 0.0553	-0.164
x1 = 0.0732	-0.214
x1 = 0.1001	-0.273
x1 = 0.2005	-0.425
x1 = 0.2943	-0.497
x1 = 0.34	-0.51
x1 = 0.4007	-0.498
x1 = 0.4969	-0.458
x1 = 0.5945	-0.385
x1 = 0.6597	-0.332
x1 = 0.7421	-0.261
x1 = 0.8312	-0.172
x1 = 0.9283	-0.0722
